Broadly, the GI50 is the concentration giving 50% growth inhibition.

The values that follow come from ChEMBL document CHEMBL1201862, “PubChem BioAssay data set” (2004).

Each structure is given as a SMILES string.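 Dose response: 5 concentrations. Exposure: 48 h. Format: 96-well plates. Endpoint: linear interpolation; highest concentration if not reached. GI50 = concentration required for 50% inhibition of growth.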 The source made the active and inactive calls. Rule as the data show it: active = GI50 up to about 1.1 µM and inactive = higher. Some results are limits rather than exact numbers.

What all share (assay): DTP human tumour cell line panel, 48 h
For assay [1], the system named is TK-10.
In assay [2] the test system is PC-3.
Assay [3] has as its system Malme-3M.
In assay [4] the test system is UACC-257.
In assay [5] the test system is CCRF-CEM.
The subject of assay [6] is CAKI-1.
Assay [7] relates to MDA-N.
Assay [8] concerns U-251.
The test system of assay [9] is HOP-62.
Assay [10] relates to EKVX.
The subject of assay [11] is NCI/ADR-RES.
For assay [12], the system named is 786-0.
In assay [13] the test system is SNB-75.
Assay [14] has as its system SK-MEL-28.
Assay [15] deals with NCI-H23.
Assay [16] has as its system A549.
In assay [17] the test system is HOP-92.
Assay [18] deals with HL-60.
Assay [19] concerns MCF7.

With `Nc1cccc2cc(Cl)cnc12`, the GI50 was > 100 µM (inactive) in assay [1]; 97.1 µM (inactive) in [2]; > 100 µM (inactive) in [3]; > 100 µM (inactive) in [4]; 16.1 µM (inactive) in assay [5]; > 100 µM (inactive) in [6]. For the same molecule, the GI50 in [7], in [8], in [9], in [10], in assay [11] and in assay [12] was > 100 µM (inactive) throughout. Moreover, the GI50 in assay [13] was 34.4 µM (inactive); in assay [14] it was > 100 µM (inactive); in assay [15], > 100 µM (inactive); in assay [16] it was > 100 µM (inactive); in assay [17] it was > 100 µM (inactive); in assay [18], 22.8 µM (inactive).

Turning to `CO/N=C(\C(=O)Nn1cn[n+](CC(=O)[O-])c1)c1csc(N)n1`, the GI50 in assay [1], in assay [4], in [5], in assay [6], in assay [7] and in assay [9] was > 10 µM (inactive) each time. Besides, the GI50 is > 10 µM (inactive) in assay [10]; > 10 µM (inactive) in [12]; 9.25 µM (inactive) in [13]; > 10 µM (inactive) in assay [14]; > 10 µM (inactive) in assay [15]; > 10 µM (inactive) in [16]. In addition, the GI50 in assay [17], in assay [18] and in [19] was > 10 µM (inactive) in each case.

On to `CC(C)(/N=N/C(C)(C)C1=NCCN1)C1=NCCN1`, for which the GI50 in assay [1] is > 56 µM (inactive); in assay [2] it was > 100 µM (inactive); in assay [3] it was > 100 µM (inactive); in [4] it was > 100 µM (inactive); in [5], > 100 µM (inactive); in assay [6] it was > 83.9 µM (inactive). In addition, the GI50 in assay [7] was > 100 µM (inactive); in assay [8], > 100 µM (inactive); in [9], > 100 µM (inactive); in [10] it was > 100 µM (inactive); in assay [11] it was > 100 µM (inactive); in [12], > 71.4 µM (inactive). Moreover, the GI50 was > 100 µM (inactive) in assay [13], > 100 µM (inactive) in assay [14] and > 69.5 µM (inactive) in assay [19].

Take `O=C(O)CN1CCN2CCOCCOCCN(CC1)CCN(CC(=O)O)CC2`: the GI50 in assay [1], in assay [2], in [3], in [4], in assay [5] and in [6] was > 100 µM (inactive) each time. Further, the GI50 in [7], in assay [8], in assay [9], in assay [10], in assay [11] and in [12] was > 100 µM (inactive) in each case. Also, the GI50 in assay [13], in assay [14], in assay [16], in assay [17] and in assay [19] was > 100 µM (inactive) throughout.

With `CCCCc1cc2c(cc1O)CCC1C2CC[C@@]2(C)C1CC[C@@H]2O` (some centres undefined), the GI50 was 18.3 µM (inactive) in [1]; 12.4 µM (inactive) in assay [2]; 20.7 µM (inactive) in [3]; 15.4 µM (inactive) in assay [4]; 21.5 µM (inactive) in assay [5]; 16.6 µM (inactive) in assay [6]. The GI50 in assay [7] is 23.4 µM (inactive); in assay [8], 19.4 µM (inactive); in assay [9], 28.4 µM (inactive); in assay [10] it was 14.8 µM (inactive); in assay [11], 18.7 µM (inactive); in assay [12] it was 22.8 µM (inactive). Also, the GI50 was 13 µM (inactive) in assay [13]; 23 µM (inactive) in assay [14]; 20.2 µM (inactive) in [15]; 13.5 µM (inactive) in assay [16]; 20 µM (inactive) in assay [17]; 11.8 µM (inactive) in assay [19].

In the case of `C/C=C/[C@H](O[Si](C)(C)C(C)(C)C)[C@@H](O)/C=C/C(=O)OCC`, the GI50 in assay [1] is 27.9 µM (inactive); in assay [2], 33.3 µM (inactive); in [3], 14.7 µM (inactive); in assay [4] it was 19 µM (inactive); in assay [5], 14.3 µM (inactive); in assay [6] it was 18.2 µM (inactive). In addition, the GI50 in assay [7] was 19.6 µM (inactive); in assay [8] it was 19.4 µM (inactive); in [9] it was 17 µM (inactive); in assay [10] it was 20.7 µM (inactive); in assay [11] it was 26.8 µM (inactive); in [12], 20.8 µM (inactive). Further, the GI50 in [13] is 37.5 µM (inactive); in assay [14], 16.9 µM (inactive); in assay [15] it was 38.7 µM (inactive); in [16], 30.1 µM (inactive); in [17], 23.8 µM (inactive); in assay [19], 21.1 µM (inactive).

As to `Cc1cc2ncc3c(=O)n(NS(=O)(=O)c4ccc(N)cc4)ccc3n2n1`, the GI50 is > 100 µM (inactive) in assay [1]; > 100 µM (inactive) in assay [2]; 36.3 µM (inactive) in [3]; > 100 µM (inactive) in [4]; > 100 µM (inactive) in [5]; > 100 µM (inactive) in assay [6]. Further, the GI50 in [7], in [8], in assay [9], in assay [10], in assay [12] and in assay [13] was > 100 µM (inactive) in each case. The GI50 in [14] is > 100 µM (inactive); in assay [15] it was > 100 µM (inactive); in assay [16] it was > 100 µM (inactive); in [17] it was 54.2 µM (inactive); in assay [18] it was > 100 µM (inactive); in [19] it was > 100 µM (inactive).

`Cc1cccc(Cn2c3c(c4cc(O)ccc42)C(=O)c2ccccc2C3=O)c1`: the GI50 in [1] is 15.5 µM (inactive); in assay [2], 6.27 µM (inactive); in assay [3] it was 19.1 µM (inactive); in assay [4], > 100 µM (inactive); in [5], 28.1 µM (inactive); in assay [6] it was > 26.5 µM (inactive). Also, the GI50 in [7] is 68.4 µM (inactive); in assay [8] it was 8.59 µM (inactive); in assay [9], 4.58 µM (inactive); in [10], 3.95 µM (inactive); in assay [11] it was 6.84 µM (inactive); in [12] it was 3.86 µM (inactive). For the same molecule, the GI50 in [13] is 1.97 µM (inactive); in assay [14], > 39.6 µM (inactive); in assay [15], 15.4 µM (inactive); in [16], 11.3 µM (inactive); in assay [19] it was 23.2 µM (inactive).

For the molecule `CC(C)(O)CCc1ccc(O)c2c(=O)c3c(O)c4c(cc3oc12)O[C@H]1OC=C[C@@]41O` [AUSTOCYSTIN D], the GI50 was < 0.01 µM (active) in assay [1]; 0.119 µM (active) in assay [2]; 1.08 µM (active) in assay [3]; 0.0184 µM (active) in [4]; 9.79 µM (inactive) in assay [5]; < 0.01 µM (active) in assay [6]. Further, the GI50 in assay [7] was < 0.01 µM (active); in [8] it was < 0.01 µM (active); in assay [9], 0.147 µM (active); in [10], 0.255 µM (active); in [11], < 0.01 µM (active); in assay [12] it was 7.06 µM (inactive). In addition, the GI50 in [13] was 0.0562 µM (active); in [14], 0.286 µM (active); in [15] it was < 0.01 µM (active); in [16], 0.726 µM (active); in assay [17] it was 0.251 µM (active); in assay [19] it was < 0.01 µM (active).

For the molecule `COC(=O)[C@@]12CCCC(=O)[C@@H]1[C@H]1CCC[C@H]12`, the GI50 in assay [1], in assay [2], in [3], in assay [4], in assay [5] and in [6] was > 100 µM (inactive) each time. Besides, the GI50 in [7], in assay [8], in [9], in [10], in assay [11] and in assay [12] was > 100 µM (inactive) each time. Moreover, the GI50 in assay [13], in assay [14], in assay [15], in [16], in assay [17] and in assay [19] was > 100 µM (inactive) throughout.

On to `C#CC(=O)OCC#CCOC(=O)C#C`, for which the GI50 is 16.3 µM (inactive) in assay [1]; 28.7 µM (inactive) in [2]; 19.1 µM (inactive) in assay [3]; > 100 µM (inactive) in assay [4]; 15.9 µM (inactive) in assay [5]; 19.8 µM (inactive) in assay [6]. The GI50 in assay [7] was 38.8 µM (inactive); in assay [8], 17.5 µM (inactive); in assay [9], 21.6 µM (inactive); in assay [10], 14.2 µM (inactive); in assay [11], 24.9 µM (inactive); in assay [12] it was 15 µM (inactive). For the same molecule, the GI50 in assay [15] is 23.3 µM (inactive); in [16], 27.9 µM (inactive); in [17], 16.9 µM (inactive); in [19], 20.9 µM (inactive).

Take `N#Cc1nc(CCCCCN2C(=O)c3ccccc3C2=O)oc1N`: the GI50 is > 100 µM (inactive) in assay [1]; > 100 µM (inactive) in assay [2]; > 100 µM (inactive) in [3]; > 100 µM (inactive) in [4]; 1.91 µM (inactive) in assay [5]; > 100 µM (inactive) in [6]. Also, the GI50 in assay [7], in assay [8], in assay [9], in assay [10], in assay [11] and in assay [12] was > 100 µM (inactive) each time. In addition, the GI50 in assay [14], in assay [15], in assay [16] and in assay [19] was > 100 µM (inactive) in each case.
